Among the data in paper PMC9553116 (The Journal of Pharmacology and Experimental Therapeutics, 2022) are FRET values, retold here.

This assay concerns the target T1, MFN2 (FRET-MFN2) (Homo sapiens, UniProt O95140).
T1 sequence (O95140 1-757): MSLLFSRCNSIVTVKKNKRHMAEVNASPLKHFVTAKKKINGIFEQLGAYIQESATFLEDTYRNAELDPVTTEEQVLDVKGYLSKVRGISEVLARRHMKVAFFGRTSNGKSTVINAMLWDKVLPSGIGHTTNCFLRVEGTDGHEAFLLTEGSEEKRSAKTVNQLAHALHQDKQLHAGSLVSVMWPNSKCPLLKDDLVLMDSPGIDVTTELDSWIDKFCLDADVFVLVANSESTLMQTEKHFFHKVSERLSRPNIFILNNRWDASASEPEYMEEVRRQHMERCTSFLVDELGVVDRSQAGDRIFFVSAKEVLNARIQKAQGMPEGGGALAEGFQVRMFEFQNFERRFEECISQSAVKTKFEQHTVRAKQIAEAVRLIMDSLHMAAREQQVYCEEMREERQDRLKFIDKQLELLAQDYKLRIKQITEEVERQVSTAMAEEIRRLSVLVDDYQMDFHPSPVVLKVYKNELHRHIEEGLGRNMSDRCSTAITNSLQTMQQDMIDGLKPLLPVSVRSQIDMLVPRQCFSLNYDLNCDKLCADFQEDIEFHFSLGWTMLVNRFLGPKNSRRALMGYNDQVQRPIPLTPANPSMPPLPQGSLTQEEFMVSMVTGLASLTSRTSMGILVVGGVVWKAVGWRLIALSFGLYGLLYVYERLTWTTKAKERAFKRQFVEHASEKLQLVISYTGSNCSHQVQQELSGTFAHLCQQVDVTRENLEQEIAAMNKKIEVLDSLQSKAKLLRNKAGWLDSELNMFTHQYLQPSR
Description: Cerulean/Venus FRET of MFN2 conformation, isolated mitochondria. It counts as biochemical. Conditions: 1 uM compound, 4 h, room temperature, pH 7.4; allosteric.

For `O=C(CCCCCc1ccccc1)N[C@H]1CC[C@H](O)CC1` [trans-MiM111, N-(trans-4-Hydroxycyclohexyl)-6-phenylhexanamide], the FRET entry was “trans-MiM111 and CPR1-B promoted a relaxed WT MFN2 conformation”.
